Results on 1 compound are retold here after patent publication US10813939B2, “Bromodomain inhibitor as adjuvant in cancer immunotherapy” (H. LEE MOFFITT CANCER CENTER AND RESEARCH INSTITUTE, INC., priority 2014, dated 2020).

Entries after “also recorded” stand apart in the source; their conditions may differ.

Holding throughout (type): cell-based
One series relates to PEM. The series is described as follows: PEM cell viability after 24 hours JQ1. As to the method: In order to determine the best working concentration of JQ1 in PEM, plated PEM (96-well plate) were treated with increased concentration of JQ1 for 24 hours then cell viability was determined. A threshold of 100 to 800 nanomolar was determined to be acceptable.
For series [1], the system named is IL-10. The series is described as follows: IL-10 production by ELISA in PEM treated with JQ1 with and without LPS. The conditions noted are these: PEM (PEM or bone marrow derived DCs), 24 hours, supernatant ELISA. The method, then:
(§1) Macrophages (PEM) were treated with different concentrations of JQ1 in presence and absence of LPS (stimulant for macrophages). After 24 hours, supernatant was collected and IL -10 & IL-6 production was determined by ELISA.
In general terms: ELISA stands for enzyme-linked immunosorbent assay.

In series [2] the test system is IL-6. Briefly: IL-6 production by ELISA in PEM treated with JQ1 with and without LPS. The conditions noted are these: PEM (PEM or bone marrow derived DCs), 24 hours, supernatant ELISA. The method, then:
as §1

Series [3] deals with IL-10. The series is described as follows: IL-10 mRNA expression by real time PCR in PEM. The conditions noted are these: PEM or DCs, increasing JQ1, LPS stimulation.
Series [4] has as its system IL-6. The series is described as follows: IL-6 mRNA expression by real time PCR in PEM. The conditions noted are these: PEM or DCs, increasing JQ1, LPS stimulation. A general note: In qPCR the cycle at which signal appears reflects the starting amount.
Series [5] deals with PD-L1. Briefly: Flow cytometry of PEM with anti-PD-L1. The conditions noted are these: JQ1 & LPS versus LPS alone, treated versus untreated APCs. As to the method: (§2) PEM were treated with different concentrations of JQ1 in presence and absence of LPS. Flow cytometry was performed on PEM treated with different concentrations of JQ1 in presence and absence of LPS using anti-PD-Ll and anti-PD-L2 as well as isotype as a control.
A general note: Flow cytometry measures light scatter and fluorescence of single cells or particles in a stream.

For another series, the system named is PD-L2. Briefly: Flow cytometry of PEM with anti-PD-L2. The note with it: JQ1 & LPS versus LPS alone. The method, then: as §2
Series [6] deals with PD-L1. The series is described as follows: PD-L1 mRNA expression by real time PCR in PEM. The note with it: LPS+JQ1 combination.
The next series deals with Naïve CD4 T-cells. The series is described as follows: JQ1-treated PEM co-cultured with naive CD4 T-cells and OVA peptide, cytokine ELISA. The conditions noted are these: PEM treated 24 hours, co-culture 48 hours with OVA peptide. As to the method: (§3) PEM were treated with different concentrations of JQ1 in presence and absence of LPS. After 24 hours, PEM was washed twice with warm RPMI. Naïve CD4 T-cells or tolerant T-cells were added to the plated macrophages with or without OVA peptide and co-cultured for 48 hours. IL-2 and IFN-γ production were determined by ELISA. Without OVA peptide, there was no production of IL-2 or IFN-γ.

Another series relates to tolerant CD4+ T-cells. Briefly: JQ1-treated PEM co-cultured with tolerant T-cells and OVA peptide, IFN-γ ELISA. The note with it: PEM treated with JQ1+LPS 24 hours, co-culture 48 hours with OVA peptide, tolerant CD4+ T-cells from lymphoma bearing hosts. The method, then: as §3

With `Cc1sc2c(c1C)C(c1ccc(Cl)cc1)=N[C@@H](CC(=O)OC(C)(C)C)c1nnc(C)n1-2` [JQ1, (S)-tert-butyl 2-(4-(4-chlorophenyl)-2,3,9-trimethyl-6H-thieno[3,2-f][1,2,4]triazolo[4,3-a][1,4]diazepin-6-yl)acetate], in the series with PEM (PEM, 96-well plate, 24 hours), the “acceptable working concentration threshold (cell viability)” value lay in the range of 100 to 800 nM. Besides, the “viability of treated APCs” value in the series on PEM (at the concentration used (FIG. 1)) was “did not affect the viability”. For the same compound, the IL-10 production entry is “decreased production” in the series on IL-10 [1]; “decreased expression and protein production” with IL-10 [1] (listed as JQ 1). Further, the IL-6 production result was “decreased production” in the series on IL-6 [2]; “decreased expression and protein production” in the series with IL-6 [2] (listed as JQ 1). Further, in the series with IL-10 [3], the “IL-10 expression (mRNA)” value was “decreased expression”. For the same compound, in the series with IL-6 [4], the “IL-6 expression (mRNA)” value is “decreased expression”. For the same compound, the entries for the “PD-L1 expression (flow cytometry)” value with PD-L1 [5] and with PD-L1 [5] (listed as JQ 1) were “relatively decreased expression” and “decreased expression; also recorded: lower expression”, respectively. For the same compound, in the series on PD-L2, the “PD-L2 expression (flow cytometry)” value was “relatively decreased expression”. In the series on PD-L1 [6], the “PDL1 mRNA expression” value is recorded as “decreased expression”. Further, the figures for the “IFN-gamma production by CD4 T-cell” value in the series on Naïve CD4 T-cells and with Naïve CD4 T-cells (listed as JQ 1) were “increase in dose dependent production” and “increased production”, respectively. The “IL-2 production by CD4 T-cell” value in the series on Naïve CD4 T-cells was “increase in dose dependent production”; in the series on Naïve CD4 T-cells (listed as JQ 1), “increased production”. For the same compound, the “IFN-gamma production by tolerant T-cells / responsiveness of tolerant T-cells” value is listed as “enhanced IFN-gamma production; also recorded: restoration of tolerant T-cell function” in the series on tolerant CD4+ T-cells and “able to restore the responsiveness; also recorded: capable of restoring the responsiveness” with tolerant CD4+ T-cells (listed as JQ 1).
